Drawing on US11319303B2 (WIGEN BIOMEDICINE TECHNOLOGY (SHANGHAI) CO., LTD., priority 2017, dated 2022), this text covers IC50 for 16 molecules.

pIC50: −log10 of the molar value. Where a name gives a salt, the structure may show the parent alone.

The target of the experiment is LC3B (Homo sapiens, UniProt Q9GZQ8). Put plainly: Fluorescence Polarization (FP) Assay: displacement of FITC-labeled peptide from GST-LC3B. The format is binding. The settings on record: Fluorescence Polarization assay; GST-LC3B 180 nM, FITC-labeled peptide 18 nM, 25° C.; read-out: IC50. As for the experimental part: The compounds of the present invention for regulating the autophagy-related protein LC3B were tested by Fluorescence Polarization (FP) Assay.
Fluorescence Polarization (FP) Assay Test
`CN(C)CCNC=C1C(=O)CC(c2cccc([N+](=O)[O-])c2)CC1=O` (stereo not shown) [Compound 311, 2-(((2-(dimethylamino)ethyl)amino)methylene)-5-(3-nitrophenyl) cyclohexane-1,3-dione]: the pIC50 was > 5.52.

Regarding `NCCNC=C1C(=O)CC(c2ccccc2)CC1=O` (stereo not shown) [Compound 175, 2-(((2-aminoethyl)amino)methylene)-5-phenylcyclo-hexane-1,3-dione hydrochloride], the pIC50 is 4.82 to 5.52. For `CCCNC(=O)C1CC(=O)C(=CN(C)C)C(=O)C1` (stereo not shown) [Compound 274, 4-((dimethylamino)methylene)-3,5-dioxo-N-propylcyclohexane-1-carboxamide] the value was 4.00 to 4.82; for `Nc1nc2c(C3CC(=O)C(=CNCCN4CCN(CCO)CC4)C(=O)C3)cccc2s1` (stereo not shown) [Compound 85, 5-(2-aminobenzo[d]thiazol-4-yl)-2-(((2-(4-(2-hydroxyethyl)piperazin-1-yl)ethyl)amino)methylene)cyclohexane-1,3-dione], 4.00 to 4.82.

Turning to `O=C1CC(c2ccccc2O)CC(=O)C1=CO` (stereo not shown) [Compound 442, 2-(hydroxymethylene)-5-(2-hydroxyphenyl)cyclo-hexane-1,3-dione], the pIC50 is 4.00 to 4.82. Next, `CC(=O)N1CCN(CCNC=C2C(=O)CC(c3ccc(C)cc3)CC2=O)CC1` (stereo not shown) [Compound 225, 2-(((2-(4-acetylpiperazin-1-yl)ethyl)amino)methylene)-5-(p-tolyl) cyclohexane-1,3-dione]: > 5.52; `COCCOCCOc1cccc(C2CC(=O)C(=CNCCN3CCN(CCO)CC3)C(=O)C2)c1` (stereo not shown) [Compound 34, 2-(((2-(4-(2-hydroxyethyl)piperazin-yl)ethyl)amino)methylene)-5-(3-(2-(2-methoxyethoxy)ethoxy)phenyl)cyclohexane-1,3-dione]: > 5.52.

Consider `CCOC(=O)[C@H](Cc1ccccc1)NC=C1C(=O)CC(c2ccccc2)CC1=O` (stereo partly shown) [Compound 124, (l)-ethyl ((2,6-dioxo-4-phenylcyclo-hexylidene)methyl) phenylalaninate], for which the pIC50 is 3.00 to 4.00.

Regarding `O=C1CC(Cc2ccccc2)C(=O)/C1=C/NCCN1CCN(CCO)CC1` (stereo not shown) [Compound 115, 4-benzyl-2-(((2-(4-(2-hydroxyethyl)piperazin-1-yl)ethyl)amino)-methylene)cyclopentane-1,3-dione], the pIC50 was 4.82 to 5.52. Take `CN(C)C=C1C(=O)C(C)(c2ccccc2)C1=O` (stereo not shown) [Compound 201, 4-((dimethylamino)methylene)-2-methyl-2-phenylcyclobutane-1,3-dione]: the pIC50 was 3.00 to 4.00. On to `O=C1CC(c2cccc3[nH]cc(C4CC4)c23)CC(=O)C1=CNCCN1CCN(CCO)CC1` (stereo not shown) [Compound 185, 5-(3-cyclopropyl-1H-indol-4-yl)-2-(((2-(4-(2-hydroxyethyl)piperazin-1-yl)ethyl)amino)methylene) cyclohexane-1,3-dione], for which the pIC50 was > 5.52. Take `O=C1CC(c2cccc(Cl)c2)CC(=O)C1=CO` (stereo not shown) [Compound 419, 2-(hydroxymethylene)-5-(3-chlorophenyl)cyclo-hexane-1,3-dione]: the pIC50 is > 5.52.

Take `COc1cccc(C2CC(=O)C(=CNCCN(C)C)C(=O)C2)c1` (stereo not shown) [Compound 337, 2-(((2-(dimethylamino)ethyl)amino)methylene)-5-(3-methoxyphenyl) cyclohexane-1,3-dione]: the negative-log IC50 (pIC50) was > 5.52.

Consider `CC1(c2ccccc2)CC(=O)C(=CNCCN2CCN(CCO)CC2)C(=O)C1` (stereo not shown) [Compound 29, 2-(((2-(4-(2-hydroxyethyl)piperazin-1-yl)ethyl)amino)methylene)-5-methyl-5-phenylcyclohexane-1,3-dione], for which the pIC50 was 3.00 to 4.00. Next, `O=C1CC(c2ccccc2)CC(=O)C1=CN[C@@H](Cc1ccccc1)C(=O)O` (stereo partly shown) [Compound 123, ((2,6-dioxo-4-phenylcyclo-hexylidene)methyl) phenylalanine]: 3.00 to 4.00. Consider `Cc1ccc(C2CC(=O)C(=CNCCN3CCN(CCCO)CC3)C(=O)C2)cc1` (stereo not shown) [Compound 230, 2-(((2-(4-(3-hydroxypropyl)piperazin-1-yl)ethyl)amino)methylene)-5-(p-tolyl) cyclohexane-1,3-dione], for which the pIC50 is > 5.52.

A word on the pIC50: it is the IC50 on a negative log10 scale, so that one unit is a factor of ten.
